Experimental data taken from patent publication US7160732B2, “Fluorescein-based metal sensors, and methods of making and using the same” (Massachusetts Institute of Technology, priority 2000, dated 2007).

Key:
[1] = Quantum yield of fluorescence, metal free and Zn^2+ bound ligand; type: physicochemical; details: 50 mM PIPES, 100 mM KCl
Excerpt: Quantum yield, Φ, may be obtained by comparison of the integrated area of the corrected emission spectrum of the sample with that of a reference solution. A preferred reference solution is a solution of fluorescein in 0.1 N NaOH, quantum efficiency 0.95. The concentration of the reference is adjusted to match the absorbance, Abs, of the test sample. The quantum yields may be calculated using the following equation: […]
The quantum yields of fluorescence were obtained by comparison of the integrated area of the corrected emission spectrum of the sample with that of a solution of fluorescein in 0.1 N NaOH, quantum efficiency 0.95. The concentration of the reference was adjusted to match the absorbance of the test sample. The quantum efficiency of the metal free ligand was measured using dilute sample of Formula 16 dye (˜1×10^−6 M, Abs≦0.1) in 10 mM PIPES, 100 mM KCl and 50 μM EDTA, pH=7.0. The quantum efficiency of the metal bound ligand was measured using a dilute sample of Formula 16 (˜8×10^−7 M, Abs≦0.1) in 10 mM PIPES, 100 mM KCl and 100 μM ZnCl2, pH=7.0. Emission for Formula 16 was integrated from 496 to 600 nm with excitation at 492 nm. The quantum yields were calculated with the following equation.
(§1) Under pseudo physiological conditions (50 mM PIPES, 100 mM KCl) at pH 7 in the presence of EDTA to scavenge advantageous metal ions, Formula 16 has a quantum yield of 0.25. The quantum yield increases to 0.92 in the presence of 25 μM Zn^2+. The excitation maximum of Formula 16 shifts from 498 nm (ε=36.8×10^3 M^−1cm^−1) to 490 nm (ε=44.9×10^3 M^−1cm^−1) upon Zn^2+ complexation. The slight hypsochromatic shift in the absorption wavelength is indicative of the coordination of the donor group (phenol) to Zn^2+. Since the phenol is incorporated in the π-system of the fluorophore, coordination to a metal would be expected to perturb the electronic structure of the system and produce a shift in the excitation wavelength. […] Under most conditions, cadmium concentrations are much lower than zinc concentrations in biological samples.

[2] = Fluorescence response to Zn^2+
Method: Fluorescence spectra were recorded on a Hitachi F-3010 spectrofluorimeter under the control of a Pentium-based PC running the SpectraCalc software package. Excitation was provided by a 150 W Xe lamp (Ushio Inc.) operating at a current of 5 A. All spectra were normalized for excitation intensity via a rhodamine quantum counter, and emission spectra were normalized by the manufacturer-supplied correction curves. Spectra were routinely acquired at 25° C., maintained by a circulating water bath in 1 cm×1 cm quartz cuvettes using 3 nm slit widths and a 240 nm/min scan speed. Fluorescence emission measurements were also acquired in a 1 cm×1 cm quartz cell using a Spex Fluorolog-2 instrument with 1 nm bandwidth slits. All spectra were corrected for emission intensity using the manufacturer-supplied photomultiplier curves. Spectra were routinely acquired at 25° C., maintained by a circulating water bath. […]
The fluorescence of the Formula 16 ligand is enhanced by protons. […]
Under pseudo physiological conditions (50 mM PIPES, 100 mM KCl) at pH 7 in the presence of EDTA to scavenge advantageous metal ions, Formula 57 has a quantum yield of 0.06. […] The fluorescence of Formula 57 also appears to be pH dependent. These fluorescence results are preliminary and are not intended to limit the scope of the invention in any way.

[3] = Lactone formation under aqueous conditions; type: physicochemical; details: even at high [Zn^2+] (200 μM)
Method: Binding of the first Zn^2+ more efficiently interrupts the PET process and increases the band gap between the S0 and S1 energy levels. The Kd1 is lower than that of DPA because of the additional coordination by the phenolic oxygen. […] (200 μM). These conclusions are preliminary and are not intended to limit the scope of the invention in any way.

[4] = Excitation maximum and extinction coefficient, free and upon Zn^2+ complexation; type: physicochemical; details: pH 7
Method: (§2) Absorption spectra were recorded on a Hewlett Packard 8453A diode array spectrophotometer under the control of a Pentium II-based PC running the Windows NT ChemStation software package, or a Cary 1E scanning spectrophotometer under the control of a Pentium PC running the manufacturer supplied software package. Spectra were routinely acquired at 25° C., maintained by a circulating water bath in 1 cm path length quartz cuvettes with a volume of 1.0 or 3.5 mL.
as §1

[5] = Absorption titration, second Zn^2+ binding event (Kd2); details: physiologically relevant pH
Method: as §2
The binding of Zn^2+ by a fluorescein-based ligand of Formula 16 is accompanied by changes in the absortion spectra. […] Addition of greater than one equivalent of Zn^2+ produces small changes in the absorption spectra of the ligand. The change fits to a Kd2 of 10±2 μM (486 nm), and decreases to 7.5±2.5 μM (508 nm).

[6] = pH dependent fluorescence (apparent fluorescence pKa); type: physicochemical
Method: The apparent fluorescence pKa was measured by plotting the integrated area of the emission spectrum against the pH recorded from pH=12.5–2.5. A 1 μM solution of the ligand of Formula 16 (10 mLs) containing ˜1 mM KOH and 100 mM KCl was adjusted to pH 12.5 and the UV-vis and fluorescence spectra were recorded. The pH was lowered in steps of ΔpH=0.5 with the addition of appropriate amounts of 6 N, 2 N, 0.5 N, 1 N, 0.1 N and 0.01 N HCl recording the absorption and emission spectra at each pH interval. The volume of the solution was controlled so the overall change in volume was <2%. Emission for the fluorescein-based ligand of […] was integrated from 500 to 700 nm. The resulting integrated emission areas were normalized, plotted against pH, and fit with the following nonlinear equation to calculate the pKa values. In the equation, ΔF1max and ΔF2max are the maximum fluorescence changes associated with the corresponding pKa values at the pH at which the maximum occurs.
The fluorescence of the Formula 16 ligand is enhanced by protons. […] At high pH, the magnitude of Zn^2+-induced fluorescent enhancement is more dramatic, increasing over 200-fold at pH 12.

[7] = Fluorescence response to other metal ions
Method: Fluorescence spectra were recorded on a Hitachi F-3010 spectrofluorimeter under the control of a Pentium-based PC running the SpectraCalc software package. Excitation was provided by a 150 W Xe lamp (Ushio Inc.) operating at a current of 5 A. All spectra were normalized for excitation intensity via a rhodamine quantum counter, and emission spectra were normalized by the manufacturer-supplied correction curves. Spectra were routinely acquired at 25° C., maintained by a circulating water bath in 1 cm×1 cm quartz cuvettes using 3 nm slit widths and a 240 nm/min scan speed. Fluorescence emission measurements were also acquired in a 1 cm×1 cm quartz cell using a Spex Fluorolog-2 instrument with 1 nm bandwidth slits. All spectra were corrected for emission intensity using the manufacturer-supplied photomultiplier curves. Spectra were routinely acquired at 25° C., maintained by a circulating water bath.
as §1

[8] = Fluorescence Zn^2+ binding titration (Kd) in Ca^2+/EDTA/Zn^2+ buffers; details: 1 mM EDTA, 2 mM Ca^2+, 0–1 mM total Zn^2+
Method: The first Kd associated with Zn^2+ binding was measured by a fluorescence titration as described previously. Spectra of the fluorescence of the ligand of Formula 16 were acquired by exciting at 490 nm and collecting and integrating from 500–575 nm. The measurements were performed in triplicate to ensure accuracy of the Kd value.
(§3) The fluorescent increase and binding affinity for Zn^2+ were characterized using a dual-metal single-ligand buffer system comprised of 1 mM EDTA, 2 mM Ca^2+ (or Mg^2+ up to 5 mM) and 0–1 mM total Zn^2+. […] The quantum yield of Formula 16 increases by ˜3.7-fold, and the integrated emission increases 6.0-fold.
(§4) The Zn^2+ affinity of Formula 16 was determined by performing these measurements in triplicate using different Ca^2+/EDTA/Zn^2+ buffers (FIG. 3, left panel). The fluorescence response of the ligand of Formula 16 to the solutions was measured by excitation of the solution at 490 nm with 0.25 nm slit width and detecting the emission over 500 to 575 nm. The buffer solutions contained 100 mM KCl, 50 mM PIPES, pH=7.2 mM Ca2+, 1 mM EDTA and varying free Zn2+concentrations of 0, 0.172, 0.424, 0.787, 1.32, 2.11, 3.34, 5.60, 10.2, and 24.1 nM. […] The fluorescence response fits to a Hill coefficient of 1, consistent with the formation of a 1:1 ligand:Zn^2+ complex responsible for the enhancement.

[9] = tested on: intracellular Zn^2+ in HeLa cells; assay: Detection of intracellular Zn^2+ by fluorescence microscopy; type: cell-based
Method: (§5) The ability of a fluorescein-based ligand of Formula 16 to act as a sensor for intracellular Zn^2+ was tested in COS-7 (FIG. 5) and HeLa cells (FIG. 6), using a Formula 16. Both cell types were treated with 5 μM of the fluorescein-based ligand of Formula 16 for one hour at 37° C. […] Similar observations have been made using quinoline-based Zn^2+ probes in undifferentiated mammalian cells.
(§6) Intracellular Zn^2+ concentrations were increased by incubating the cells with Zn^2+ in the presence of pyrithione, a Zn^2+ ionophore. […] Available Zn^2+ was decreased by treatment with the membrane permeable Zn^2+-chelator, TPEN.

[10] = tested on: intracellular Zn^2+ in COS-7 cells; assay: as above; type: cell-based
Method: as §5, §6

[11] = Zn^2+ affinity of reference chelator complexes; type: binding; details: pH 7
Method: as §3
as §4, with “nM. The measurements indicate that Formula 16 has a Kd of 0.5±0.1 nM (mean ±esd), obtained by a hyperbolic fit to the plot of the area under each fluorescence peak versus the Zn2+ concentration at which it was measured (FIG. 3, right panel).” for “nM.”

[12] = pH 7, in the presence of EDTA (metal free)
[13] = fit of integrated emission versus pH, 100 mM KCl

O=C1OC2(c3ccccc31)c1ccc(O)c(CN(Cc3ccccn3)Cc3ccccn3)c1Oc1c2ccc(O)c1CN(Cc1ccccn1)Cc1ccccn1 [Formula 16]
quantum yield ([1]; pH 7, in the presence of 25 μM Zn^2+): 0.92 | quantum yield [1, 12]: 0.25 | selectivity of the fluorescence response ([2]; compared with other metal ions): Zn^2+ selective | Zn^2+-induced fluorescent enhancement ([2]; pH 12): over 200 fold | lactone formation [3]: no lactone formation | excitation maximum ([4]; before Zn^2+ complexation): 498 nm | ε at excitation maximum ([4]; before Zn^2+ complexation): 36800 M⁻¹ cm⁻¹ | excitation maximum ([4]; upon Zn^2+ complexation): 490 nm | ε at excitation maximum ([4]; upon Zn^2+ complexation): 44900 M⁻¹ cm⁻¹ | fluorescence change at the second binding event [5]: not associated with a measurable change in fluorescence | pH of maximum fluorescence [6]: ~5.5 | apparent pKa,1 [6, 13]: 3.9 | apparent pKa,2 [6, 13]: 9.4 | fluorescence at high pH ([6]; pH>12): almost completely quenched | change in fluorescence intensity ([7]; Ca^2+): no measurable change in intensity | effect on fluorescence ([7]; Cd^2+): increase in fluorescence | effect on fluorescence ([7]; Co^2+): quench fluorescence | effect on fluorescence ([7]; Cu^2+): quench fluorescence | effect on fluorescence ([7]; Fe^2+): quench fluorescence | change in fluorescence intensity ([7]; Mg^2+): no measurable change in intensity | effect on fluorescence ([7]; Mn^2+): quench fluorescence | effect on fluorescence ([7]; Ni^2+): quench fluorescence | increase of integrated emission on Zn^2+ binding [8]: 6.0 fold | increase of quantum yield on Zn^2+ binding [8]: ~3.7 fold | fluorescent staining of cells ([9]; 5 μM ligand, one hour at 37° C.): bright fluorescent staining | fluorescent signal after Zn^2+ chelation ([9]; TPEN): decreased the fluorescent signal | fluorescent signal after raising intracellular Zn^2+ ([9]; Zn^2+ with pyrithione): increase in the fluorescent signal | fluorescent staining of cells ([10]; 5 μM ligand, one hour at 37° C., particularly perinuclear region (Golgi)): bright fluorescent staining | fluorescent signal after Zn^2+ chelation ([10]; TPEN): decreased the fluorescent signal | fluorescent signal after raising intracellular Zn^2+ ([10]; Zn^2+ with pyrithione): increase in the fluorescent signal

O=C1OC2(c3ccccc31)c1cc(Cl)c(O)c(CN(Cc3ccccn3)Cc3ccccn3)c1Oc1c2cc(Cl)c(O)c1CN(Cc1ccccn1)Cc1ccccn1 [Formula 31]
quantum yield [1, 12]: 0.39 | quantum yield ([1]; pH 7, in the presence of Zn^2+ (concentration not given)): 0.87 | excitation maximum ([4]; upon Zn^2+ complexation): 507 nm | ε at excitation maximum ([4]; upon Zn^2+ complexation): 84000 M⁻¹ cm⁻¹

[Zn+2].c1ccc(CNCc2ccccn2)nc1 [[Zn(DPA)]^2+]
weaker binding than the ligand of Formula 16 [11]: approximately 2 orders of magnitude
